{"source": "patent US10258291B2", "about": "“Systems and methods for evaluation of neuropathologies” (The Regents of the University of California, priority 2012, dated 2019)", "key": {"[1]": {"tested_on": "rhesus macaques (Macaca mulatta)", "assay": "Mismatch negativity (MMN) ERP in macaque EEG, auditory oddball paradigm, under ketamine, saline and 5 h post-ketamine", "assay_type": "in vivo", "from_the_text": "(§1) In exemplary implementations of the disclosed technology to assess the efficacy of a treatment for a neuropsychiatric disorder, two adult male rhesus macaques (Macaca mulatta), e.g., 6 and 7 years old, were used. All procedures and animal care were approved by the Salk Institute Animal Care and Use Committee and carried out in accordance with the US National Institutes of Health Guide for the Care and Use of Laboratory Animals.\n(§2) The exemplary stimuli presentation structure included a passive auditory intensity oddball paradigm to present different intensity tones to subjects sitting in an isolated, dimly lit room during the implementations. For example, the auditory stimuli included 100 ms (e.g., 10 ms rise/fall) pure sinusoidal tones (e.g., 1500 Hz) of either a low or a high intensity. Frequent (standard) and infrequent (deviant) stimuli were presented 80% and 20% of the time, respectively, as depicted in FIG. 4. The inter-stimulus interval was 700 ms. For example, twelve hundred standard and three hundred deviant stimuli were presented in each recording session. For example, both high-deviant (e.g., low-standard) and low-deviant (e.g., high-standard) conditions were used, e.g., to allow comparison of the responses to identical stimuli (e.g., low or high) in different contexts (e.g., standard or deviant).\n(§3) For example, EEG scalp recordings were acquired with the Vision Recorder software using a BrainAmpMR system. An exemplary custom-designed 22-channel NHP EEG cap with AgCl electrodes was developed and used for the non-human primate subject data collection (e.g., PCB Ribbon Cable for BrainCap-MR with 5 k resistors; BrainCap MR Box 1.2; sintered ring electrodes with 1.5 mm touchproof safety socket termination and 120 cm heavy-duty leadwire).\n(§4) The exemplary EEG data collection technique for the NHP subjects included the following preparation steps. […]\n(§5) The exemplary EEG data was analyzed using Analyzer 2.0 software. […]"}, "[2]": {"tested_on": "rhesus macaques (Macaca mulatta)", "assay": "P300 (P3) ERP in macaque EEG, auditory oddball paradigm, under ketamine, saline and 5 h post-ketamine", "assay_type": "in vivo", "from_the_text": "as §1, §2, §3, §4, §5"}, "[3]": {"settings": "ketamine, saline, 5 h post-ketamine"}}, "note": "Entries after “also recorded” stand apart in the source; their conditions may differ."}
{"smiles": "CNC1(c2ccccc2Cl)CCCCC1=O", "note": "(stereo not drawn) [ketamine]", "values": [{"measurement": "Effect of ketamine on MMN 5 h after infusion", "setting": "[1]; 5 h-post ketamine vs. saline F(1,290)=0.20, p=0.652, ketamine vs. 5 h-post ketamine F(1,403)=7.97, p=0.005", "result": "no longer significant; also recorded: full recovery"}, {"measurement": "MMN amplitude, ketamine vs. saline", "setting": "[1]; acute subanesthetic ketamine infusion 1 mg/Kg, vs. vehicle saline, F(1,290)=4.47, p=0.035, Cz electrode", "result": "significant reduction"}, {"measurement": "MMN latency differences across conditions", "setting": "[1]; [3]", "result": "No significant latency differences"}, {"measurement": "Effect of ketamine on P300 (P3) 5 h after infusion", "setting": "[2]; 5 h-post ketamine vs. saline F(1,301)=0.06, p=0.803, ketamine vs. 5 h-post ketamine F(1,411)=44.34, p=0.000", "result": "no longer significant; also recorded: full recovery"}, {"measurement": "P300 amplitude, ketamine vs. saline", "setting": "[2]; acute subanesthetic ketamine infusion 1 mg/Kg, vs. vehicle saline, F(1,301)=27.73, p=0.000, Cz electrode", "result": "significant reduction"}, {"measurement": "P300 latency differences across conditions", "setting": "[2]; [3]", "result": "No significant latency differences"}]}
